Results reported in US12667098B2, “Ready to use plant treatment agent applicator, container and product” (UPL Corporation Limited, priority 2022, dated 2026).

Assays:
Assay type in all cases: in vivo
Settings in all cases: 3 L/ha of glufosinate ammonium 18.5%
Field horsetail = assay: Weed control efficacy of glufosinate applied with the applicator: field horsetail
Description: (§1) The rate of application was 3 L/ha of glufosinate ammonium 18.5%.

Crabgrass = assay: Weed control efficacy of glufosinate applied with the applicator: crabgrass
Description: as §1

Barnyard grass = assay: Weed control efficacy of glufosinate applied with the applicator: barnyard grass
Description: as §1

Broadleaf dock = assay: Weed control efficacy of glufosinate applied with the applicator: broadleaf dock
Description: as §1

Water foxtail = assay: Weed control efficacy of glufosinate applied with the applicator: water foxtail
Description: as §1

[1] = 0.36% applied at 15 ml/m^2, applicator of the disclosure
[2] = 0.56% applied at 10 ml/m^2, applicator of the disclosure

Compound: CP(=O)(O)CCC(N)C(=O)O (racemic) [glufosinate, glufosinate ammonium]
- Control %: Max weed efficacy (Field horsetail; [1]): 76%
- Control %: Max weed efficacy (Field horsetail; [2]): 73%
- Control %: Max weed efficacy (Crabgrass; [1]): 82%
- Control %: Max weed efficacy (Crabgrass; [2]): 81%
- Control %: Max weed efficacy (Barnyard grass; [1]): 59%
- Control %: Max weed efficacy (Barnyard grass; [2]): 55%
- Control %: Max weed efficacy (Broadleaf dock; [1]): 92%
- Control %: Max weed efficacy (Broadleaf dock; [2]): 99%
- Control %: Max weed efficacy (Water foxtail; [1]): 96%
- Control %: Max weed efficacy (Water foxtail; [2]): 92%
